In PubChem BioAssay (NCI) one finds TGI and GI50 data, which are given here for 20 molecules.

SMILES strings stand for the structures.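 Following 48 hours of exposure in 96-well plates, responses at five concentrations were used to interpolate endpoints linearly. GI50 marks 50% less growth. TGI: total growth inhibition.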

Some test systems named below: SF-268 CNS; IGROV1 ovarian; OVCAR-5 ovarian; OVCAR-4 ovarian; NCI-H23 lung; RPMI-8226 leukemia; K-562 leukemia; ACHN renal; SF-539 CNS; BT-549 breast.
Holding throughout (assay): NCI tumour cell line growth inhibition, 48 h

For `Cc1cccc2[s+]snc12`, the TGI with SF-268 CNS was greater than 100 µM; in the test on IGROV1 ovarian, greater than 100 µM; in the test on OVCAR-5 ovarian it was greater than 100 µM; in the test with OVCAR-4 ovarian it was greater than 100 µM; with NCI-H23 lung, greater than 100 µM; in the test with RPMI-8226 leukemia it was greater than 81.4 µM. Moreover, the figures for the TGI in the test on K-562 leukemia, in the test with ACHN renal and in the test with SF-539 CNS were 59.3 µM, greater than 100 µM and greater than 100 µM, respectively.

As to `CCOC(=O)/C(C#N)=C1\c2c([nH]c(=S)[nH]c2=O)Oc2ccc3ccccc3c21`, the TGI with SF-268 CNS, with IGROV1 ovarian, in the test on OVCAR-5 ovarian, in the test with OVCAR-4 ovarian, in the test with NCI-H23 lung and with RPMI-8226 leukemia was greater than 100 µM each time. For the same molecule, the TGI in the test with K-562 leukemia, with BT-549 breast and with ACHN renal was greater than 100 µM in each case.

For the molecule `NC(=O)C(c1ccccc1)N1OC2C(=O)N(c3cccc4ccccc34)C(=O)C2C1c1c2ccccc2c(Cl)c2ccccc12` (stereo not given), the TGI in the test on SF-268 CNS was 25.1 µM; with IGROV1 ovarian, 39.8 µM; with OVCAR-5 ovarian, 19.3 µM; with OVCAR-4 ovarian, 33.2 µM; in the test with NCI-H23 lung, 26 µM; in the test on K-562 leukemia it was greater than 50 µM. Moreover, the TGI is 22 µM in the test on BT-549 breast, 20.2 µM in the test on ACHN renal and 12.9 µM with SF-539 CNS.

As to `CCC(=O)NC(Nc1ccc(O)cc1)(C(F)(F)F)C(F)(F)F`, the TGI in the test with SF-268 CNS, in the test with OVCAR-5 ovarian, with NCI-H23 lung, in the test on RPMI-8226 leukemia, with K-562 leukemia and with BT-549 breast was greater than 100 µM each time. Also, the TGI in the test on ACHN renal and in the test on SF-539 CNS was greater than 100 µM throughout.

On to `C/C(=N/O)c1cccc(Nc2nc3ccc(Cl)cc3c3[nH]c4ccccc4c23)c1`, for which the TGI in the test on SF-268 CNS turned out to be 5.15 µM; in the test on IGROV1 ovarian it was 11.5 µM; in the test on OVCAR-5 ovarian, 6.83 µM; in the test with OVCAR-4 ovarian, 4.82 µM; in the test on NCI-H23 lung it was 4.24 µM; in the test with RPMI-8226 leukemia it was 3.52 µM. In addition, the TGI in the test with K-562 leukemia was greater than 100 µM; with BT-549 breast, 11.6 µM; in the test on ACHN renal, 4.5 µM; with SF-539 CNS, 12.3 µM.

For the molecule `NNc1nc2ccccc2s1`, the TGI with SF-268 CNS, in the test on IGROV1 ovarian, in the test with OVCAR-5 ovarian, in the test with OVCAR-4 ovarian, in the test with NCI-H23 lung and in the test with RPMI-8226 leukemia was greater than 100 µM throughout. Further, the TGI with K-562 leukemia, in the test on BT-549 breast, in the test with ACHN renal and with SF-539 CNS was greater than 100 µM each time.

Regarding `CCC1=CC2Cc3nc4cc(Cl)ccc4c(N)c3C(C1)C2` (stereo not given), the TGI in the test on SF-268 CNS was found to be 16.9 µM; with IGROV1 ovarian, 20.7 µM; in the test with OVCAR-5 ovarian it was 15.4 µM; in the test with OVCAR-4 ovarian, 17.2 µM; in the test with NCI-H23 lung it was 17.3 µM; with RPMI-8226 leukemia, 5.79 µM. For the same molecule, the TGI worked out at 7.57 µM in the test on K-562 leukemia, 35.4 µM in the test with BT-549 breast, 26.7 µM in the test with ACHN renal and 28.8 µM with SF-539 CNS.

Take `NC(N)=N/N=C/c1c(-c2ccc([N+](=O)[O-])cc2)nc2n1CCS2`: the TGI in the test on SF-268 CNS was 25.4 µM; in the test with IGROV1 ovarian, 38.6 µM; with OVCAR-5 ovarian, 28 µM; with OVCAR-4 ovarian, 27.7 µM; in the test with NCI-H23 lung it was 31.3 µM; with RPMI-8226 leukemia, greater than 63.3 µM. Further, the TGI in the test on K-562 leukemia was 22.6 µM; in the test with BT-549 breast, 34.2 µM; in the test with ACHN renal it was 30.7 µM; in the test on SF-539 CNS, 32.3 µM.

Turning to `O=[N+]([O-])c1ccc(Nc2nc3ccccc3s2)cc1`, the TGI in the test on SF-268 CNS was 91.7 µM; in the test on IGROV1 ovarian it was 21.2 µM; in the test with OVCAR-5 ovarian, 84.6 µM; in the test on OVCAR-4 ovarian, greater than 100 µM; with NCI-H23 lung, 34.5 µM; in the test on K-562 leukemia it was 35 µM. In addition, the TGI in the test on BT-549 breast was 81.4 µM; in the test on ACHN renal it was greater than 100 µM.

Turning to `CC1=CC(=O)C(=O)C2=C1OC1(C2)C(C)CCC2C3(C)CCC(O)C(C)(C)C3CCC21C` (stereo not given), the TGI with SF-268 CNS came out at 63 µM; in the test with IGROV1 ovarian, 34.2 µM; with OVCAR-5 ovarian, 37.2 µM; in the test on OVCAR-4 ovarian it was 37.4 µM; in the test with NCI-H23 lung, 31.3 µM; with RPMI-8226 leukemia, 88.3 µM. For the same molecule, the TGI was 54.1 µM in the test with K-562 leukemia, 31.9 µM with ACHN renal and greater than 100 µM in the test with SF-539 CNS.

On to `N=C(N)c1csc([C@@H]2O[C@H](CO)[C@@H](O)[C@H]2O)n1`, for which the TGI with SF-268 CNS, in the test on IGROV1 ovarian, in the test with OVCAR-4 ovarian, in the test on NCI-H23 lung, in the test with RPMI-8226 leukemia and in the test on K-562 leukemia was greater than 100 µM each time. Further, the TGI in the test with ACHN renal and in the test with SF-539 CNS was greater than 100 µM in each case.

Consider `COc1ccc2c(c1)N=C1CSC(c3cccc(Br)c3)N1C2` (stereo not given), for which the TGI was greater than 100 µM in the test on SF-268 CNS; 80.7 µM in the test with IGROV1 ovarian; 56.8 µM in the test on OVCAR-5 ovarian; 40.4 µM in the test on OVCAR-4 ovarian; 45.3 µM with NCI-H23 lung; 29.7 µM in the test on RPMI-8226 leukemia. The TGI with K-562 leukemia was found to be 67.1 µM; with BT-549 breast it was 32.4 µM; with ACHN renal it was 31 µM; in the test on SF-539 CNS, 41.4 µM.

On to `CC12CCC(C(=O)N3CC=CCC3)(OC1=O)C2(C)C` (stereo not given), for which the TGI in the test with SF-268 CNS, with IGROV1 ovarian, in the test with OVCAR-5 ovarian, in the test on OVCAR-4 ovarian, in the test with NCI-H23 lung and in the test with RPMI-8226 leukemia was greater than 100 µM throughout. Besides, the TGI in the test on K-562 leukemia and in the test on SF-539 CNS was greater than 100 µM each time.

As to `c1cn2cc(-c3ccc4ncn(C5CCCCC5)c4c3)nc(-c3ccc4c(c3)ncn4C3CCCCC3)c2n1`, the GI50 in the test on SF-268 CNS was 1.59 µM; in the test on OVCAR-4 ovarian, 2.17 µM; with RPMI-8226 leukemia, 0.806 µM; with K-562 leukemia, 2.58 µM; in the test with BT-549 breast, 1.94 µM; in the test on ACHN renal, 1.68 µM. For the same molecule, the GI50 in the test on SF-539 CNS is 1.63 µM. Also, the TGI is 3.15 µM in the test on SF-268 CNS; 6.3 µM in the test on OVCAR-4 ovarian; 3.99 µM with RPMI-8226 leukemia; greater than 100 µM with K-562 leukemia; 3.64 µM with BT-549 breast; 3.07 µM in the test on ACHN renal. In the test on SF-539 CNS, the TGI was found to be 3.15 µM.

`O=C1C(=O)c2ccccc2C(O)=C1CN(CCCl)CCCl`: the TGI in the test on SF-268 CNS is greater than 100 µM; in the test with IGROV1 ovarian it was 77.9 µM; in the test with OVCAR-5 ovarian, greater than 100 µM; in the test with OVCAR-4 ovarian, greater than 100 µM; in the test with NCI-H23 lung, greater than 100 µM; in the test with K-562 leukemia, greater than 100 µM. Moreover, the TGI in the test with ACHN renal and in the test with SF-539 CNS was greater than 100 µM in each case.

In the case of `COc1cc(C2=C(C#N)C(N)OC3=C2COc2ccccc23)cc(OC)c1OC` (stereo not given), the TGI in the test on SF-268 CNS was 89.1 µM; in the test on IGROV1 ovarian it was greater than 100 µM; in the test on OVCAR-5 ovarian, greater than 100 µM; with OVCAR-4 ovarian it was 45.7 µM; with NCI-H23 lung it was greater than 100 µM; with RPMI-8226 leukemia, greater than 100 µM. The TGI with K-562 leukemia is greater than 100 µM; in the test on BT-549 breast it was greater than 100 µM; in the test with ACHN renal it was 32.2 µM; in the test on SF-539 CNS it was 50.5 µM.

Take `Nc1ccc2c3c(n(CCCCl)c(=O)c2c1)-c1cc2c(cc1C3=O)OCO2`: the GI50 was greater than 100 µM with SF-268 CNS; 0.177 µM in the test on IGROV1 ovarian; greater than 100 µM with OVCAR-5 ovarian; 0.562 µM in the test with NCI-H23 lung; greater than 100 µM with RPMI-8226 leukemia; greater than 100 µM in the test with K-562 leukemia. In the test with ACHN renal, the GI50 was greater than 100 µM. Besides, the TGI was greater than 100 µM in the test on SF-268 CNS; greater than 100 µM in the test with IGROV1 ovarian; greater than 100 µM in the test on OVCAR-5 ovarian; 25.8 µM in the test with NCI-H23 lung; greater than 100 µM in the test with RPMI-8226 leukemia; greater than 100 µM with K-562 leukemia. In the test with ACHN renal, this molecule gave a TGI greater than 100 µM.

On to `COC1CC(OC2CCC3(C)C(CCC45CCC(C6=CC(=O)OC6)C(C)(CCC43)C5=O)C2)OC(C)C1O` (stereo not given), for which the TGI in the test on SF-268 CNS is 44 µM; in the test with IGROV1 ovarian, greater than 100 µM; with OVCAR-5 ovarian it was greater than 100 µM; with NCI-H23 lung, 48.3 µM; in the test on K-562 leukemia, greater than 100 µM; in the test with BT-549 breast, 55.3 µM. Further, the TGI was found to be 41.1 µM in the test on ACHN renal and 63.3 µM in the test with SF-539 CNS.

Take `O=C(O)C1Cc2c([nH]c3ccccc23)C=N1` (stereo not given): the TGI in the test with SF-268 CNS, with IGROV1 ovarian, in the test with OVCAR-5 ovarian, with OVCAR-4 ovarian, in the test on NCI-H23 lung and with RPMI-8226 leukemia was greater than 100 µM in each case. Besides, the TGI in the test with K-562 leukemia and in the test on SF-539 CNS was greater than 100 µM each time.

Take `NC(CCP(=O)(O)CCC1C=CC=CC1)C(=O)O` (stereo not given): the TGI with SF-268 CNS, in the test with IGROV1 ovarian, in the test on OVCAR-5 ovarian, with OVCAR-4 ovarian, with NCI-H23 lung and with RPMI-8226 leukemia was greater than 100 µM in each case. Also, the TGI in the test with K-562 leukemia, in the test on BT-549 breast, with ACHN renal and in the test with SF-539 CNS was greater than 100 µM each time.
